Reference: ChEMBL document CHEMBL2010715, “Verrulactones A and B, new inhibitors of Staphylococcus aureus enoyl-ACP reductase produced by Penicillium verruculosum F375” (Bioorg Med Chem Lett, 2012)
Converted amounts (≈) assume the structure as drawn. The source made the active and inactive calls. The rule behind the calls is not given here.

Tests used:
[1] = test system: Pseudomonas aeruginosa; assay: Antibacterial activity against Pseudomonas aeruginosa KCTC 2004; type: functional, organism-based
[2] = test system: Bacillus cereus; assay: Antibacterial activity against Bacillus cereus KCTC 1661; type: functional
[3] = (§1) Inhibition of Staphylococcus aureus Fab1
[4] = test system: Staphylococcus aureus; assay: as §1
[5] = test system: Escherichia coli; assay: Antibacterial activity against Escherichia coli KCTC 1683; type: functional, organism-based
[6] = test system: Staphylococcus aureus; assay: Antibacterial activity against Staphylococcus aureus RN4220; type: functional
[7] = test system: Staphylococcus aureus; assay: Antibacterial activity against methicillin-resistant Staphylococcus aureus CCARM 3167; type: functional

SMILES: COc1cc(O)c2c(=O)oc3cc(O)c(O)c(-c4c(O)c(O)cc5oc(=O)c6c(O)cc(OC)cc6c45)c3c2c1 [VERRULACTONE A]
- Activity [1]: inactive
- MIC [2]: 8 µg/mL (≈ 14.6 µM)
- IC50 [3]: 920 nM
- inhibition [4]: Dose-dependent effect
- Activity [5]: inactive
- MIC [6]: 8 µg/mL (≈ 14.6 µM)
- MIC [7]: 8 µg/mL (≈ 14.6 µM)

SMILES: COc1cc(O)c2c(=O)oc3c(-c4c(O)c(O)cc5oc(=O)c6c(O)cc(OC)cc6c45)c(O)c(O)cc3c2c1 [VERRULACTONE B]
- IC50 [3]: 1410 nM
- MIC [6]: 16 µg/mL (≈ 29.3 µM)
- MIC [7]: 16 µg/mL (≈ 29.3 µM)
